Results reported in US9561228B2 (Celgene Avilomics Research, Inc., priority 2013, dated 2017).
Where two headings read alike, the source gives them in different places.

Assays:
MEK1 activated ERK1 = target: T1, MEK1 activated ERK1 (Homo sapiens, UniProt P27361); assay: Omnia continuous-read kinase assay for potency against MEK1 activated ERK1; assay type: biochemical
T1 construct: purchased Millipore (Billerica, Mass.) 14-439-K
In short: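 Apparent IC50 came from initial reaction slopes (RFU vs time) plotted against log inhibitor with a variable-slope fit. Reactions were started with ERK1 (4 nM final) added to 50 μM ATP, roughly at its appKM, and 10 μM Sox-conjugated ST17 peptide in 20 mM Tris pH 7.5, 5 mM MgCl2. Fluorescence was monitored every 71 seconds.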

[1] = test system: ERK1/2 phosphorylation of p90RSK in A375 cells; assay: Detection of total and phosphor-RSK by MSD ELISA (A375); assay type: cell-based; conditions: Homo sapiens, A-375, read-out: ERK1/ERK2 PRSK A375 EC50
In short: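 Electrochemiluminescent MSD ELISA: common RSK capture antibody, with pRSK Ser380 or total RSK detection antibodies plus SulfoTag secondaries. Samples were lysates of A375 cells exposed to compound for 2 h at 37° C after overnight culture in 0.1% FBS DMEM.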

Erk1 = target: T2, Erk1 (Homo sapiens, UniProt P27361); assay: Protein Mass Modification Assay (intact protein MALDI, 60 min, 10-fold excess of compound); assay type: binding
T2 construct: purchased Millipore 14-439
T2 sequence (P27361 whole entry): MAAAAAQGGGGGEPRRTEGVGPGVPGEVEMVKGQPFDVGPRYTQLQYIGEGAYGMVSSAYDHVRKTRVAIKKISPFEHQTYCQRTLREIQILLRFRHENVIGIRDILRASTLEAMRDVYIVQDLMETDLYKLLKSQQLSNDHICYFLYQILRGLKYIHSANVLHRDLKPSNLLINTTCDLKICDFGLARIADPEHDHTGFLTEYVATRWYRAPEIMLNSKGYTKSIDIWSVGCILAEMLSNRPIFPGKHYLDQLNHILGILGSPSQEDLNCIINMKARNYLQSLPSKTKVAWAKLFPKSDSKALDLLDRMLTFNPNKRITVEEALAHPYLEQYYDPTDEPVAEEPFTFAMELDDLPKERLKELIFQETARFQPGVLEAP
In short: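 Percent covalent modification comes from the intact-protein MALDI centroid mass shift, treated versus control, divided by compound MW. Before analysis, human Erk1 was exposed to compound at 10-fold excess over protein for 60 min at room temperature.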

[2] = MEK1 activated ERK1, ATP at KM, read-out: ERK1 Omnia WT ATP KM IC50

T1 sequence (P27361 whole entry): as above

C=CC(=O)Nc1cc(C)ccc1Nc1nc(NC2CCC(=O)NC2)ncc1C(F)(F)F (racemic) [Compound I-368, Rac-N-(5-methyl-2-((2-((6-oxopiperidin-3-yl)amino)-5-(trifluoromethyl)pyrimidin-4-yl)amino)phenyl)acrylamide]
IC50 (MEK1 activated ERK1; ATP at KM, WT): 101 to 500 nM
EC50 [1]: > 1000 nM
ERK1 Mass Mod (%) (Erk1): E (a mass modification of ≧70%)

C=CC(=O)Nc1ccccc1Nc1nc(Nc2cc(OC)ncc2C)ncc1C(F)(F)F [Compound I-85, N-(2-((2-((2-Methoxy-5-methylpyridin-4-yl)amino)-5-(trifluoromethyl)pyrimidin-4-yl)amino)phenyl)acrylamide]
IC50 (MEK1 activated ERK1; [2]): < 100 nM
EC50 [1]: < 100 nM
ERK1 Mass Mod (%) (Erk1): E (a mass modification of ≧70%)

C=CC(=O)Nc1ccccc1Nc1nc(Nc2cc(OC)nc(N3CCN(C(C)=O)CC3)c2)ncc1C(F)(F)F [Compound I-92]
IC50 (MEK1 activated ERK1; [2]): < 100 nM
EC50 [1]: < 100 nM
ERK1 Mass Mod (%) (Erk1): E (a mass modification of ≧70%)

C=CC(=O)Nc1cc(C)ccc1Nc1nc(Nc2cc(OC)nc(N3CCN(C(C)=O)CC3)c2)ncc1C(F)(F)F [Compound I-93, N-(2-((2-((2-(4-Acetylpiperazin-1-yl)-6-methoxypyridin-4-yl)amino)-5-(trifluoromethyl)pyrimidin-4-yl)amino)-5-methylphenyl)acrylamide]
IC50 (MEK1 activated ERK1; [2]): 101 to 500 nM
EC50 [1]: < 100 nM
ERK1 Mass Mod (%) (Erk1): E (key: E: a mass modification of ≧70%; F: a mass modification of 31-69%; G: a mass modification ≦30%)

C=CC(=O)Nc1cc(C)ccc1Nc1nc(Nc2cc(OC)nc(OC)c2)ncc1C(F)(F)F [Compound I-96]
IC50 (MEK1 activated ERK1; [2]): 101 to 500 nM
EC50 [1]: 101 to 500 nM
ERK1 Mass Mod (%) (Erk1): E (key: E: a mass modification of ≧70%; F: a mass modification of 31-69%; G: a mass modification ≦30%)

C=CC(=O)Nc1cc(C)ccc1Nc1nc(Nc2cc(NCCOC)nc(OC)c2)ncc1C(F)(F)F [Compound I-294, N-(2-((2-((2-methoxy-6-((2-methoxyethyl)amino)pyridin-4-yl)amino)-5-(trifluoromethyl)pyrimidin-4-yl)amino)-5-methylphenyl)acrylamide]
IC50 (MEK1 activated ERK1; [2]): 101 to 500 nM
EC50 [1]: < 100 nM
ERK1 Mass Mod (%) (Erk1): E (a mass modification of ≧70%)

C=CC(=O)Nc1cc(C)ccc1Nc1nc(Nc2cc(N[C@H]3CC[C@](C)(O)CC3)nc(OC)c2)ncc1C(F)(F)F [Compound I-327, N-(2-((2-((2-((trans-4-hydroxy-4-methylcyclohexyl)amino)-6-methoxypyridin-4-yl)amino)-5-(trifluoromethyl)pyrimidin-4-yl)amino)-5-methylphenyl)acrylamide]
IC50 (MEK1 activated ERK1; [2]): 101 to 500 nM
EC50 [1]: < 100 nM
ERK1 Mass Mod (%) (Erk1): E (a mass modification of ≧70%)

C=CC(=O)Nc1cc(C)ccc1Nc1nc(Nc2cc(P(C)(C)=O)ncc2C)ncc1C(F)(F)F [Compound I-343, N-(2-((2-((2-(dimethylphosphoryl)-5-methylpyridin-4-yl)amino)-5-(trifluoromethyl)pyrimidin-4-yl)amino)-5-methylphenyl)acrylamide]
IC50 (MEK1 activated ERK1; ATP at KM, WT): 101 to 500 nM
EC50 [1]: 101 to 500 nM
ERK1 Mass Mod (%) (Erk1): F (a mass modification of 31-69%)

C#CC(=O)Nc1cc(C)ccc1Nc1nc(Nc2cc(OC)ncc2C)ncc1C(F)(F)F [Compound I-345, N-(2-((2-((2-methoxy-5-methylpyridin-4-yl)amino)-5-(trifluoromethyl)pyrimidin-4-yl)amino)-5-methylphenyl)propiolamide]
IC50 (MEK1 activated ERK1; ATP at KM, WT): 101 to 500 nM
EC50 [1]: > 1000 nM
ERK1 Mass Mod (%) (Erk1): E (a mass modification of ≧70%)

C=CC(=O)Nc1cc(C)ccc1Nc1nc(Nc2nc(OC)ncc2C#N)ncc1C(F)(F)F [Compound I-346, N-(2-((2-((5-cyano-2-methoxypyrimidin-4-yl)amino)-5-(trifluoromethyl)pyrimidin-4-yl)amino)-5-methylphenyl)acrylamide]
IC50 (MEK1 activated ERK1; ATP at KM, WT): 501 to 999 nM
EC50 [1]: 101 to 500 nM
ERK1 Mass Mod (%) (Erk1): E (a mass modification of ≧70%)

C=CC(=O)Nc1cc(C)ccc1Nc1nc(Nc2nc(OC)ncc2C)ncc1C(F)(F)F [Compound I-347, N-(2-((2-((2-methoxy-5-methylpyrimidin-4-yl)amino)-5-(trifluoromethyl)pyrimidin-4-yl)amino)-5-methylphenyl)acrylamide]
IC50 (MEK1 activated ERK1; ATP at KM, WT): < 100 nM
EC50 [1]: 101 to 500 nM
ERK1 Mass Mod (%) (Erk1): E (a mass modification of ≧70%)

C=CC(=O)Nc1cc(C)ccc1Nc1nc(Nc2nc(OC)ncc2OC)ncc1C(F)(F)F [Compound I-349, N-(2-((2-((2,5-dimethoxypyrimidin-4-yl)amino)-5-(trifluoromethyl)pyrimidin-4-yl)amino)-5-methylphenyl)acrylamide]
IC50 (MEK1 activated ERK1; ATP at KM, WT): 101 to 500 nM
EC50 [1]: 101 to 500 nM
ERK1 Mass Mod (%) (Erk1): E (a mass modification of ≧70%)

C=CC(=O)Nc1cc(C)ccc1Nc1nc(Nc2cnc(OC)cc2C)ncc1C(F)(F)F [Compound I-350, N-(2-((2-((6-methoxy-4-methylpyridin-3-yl)amino)-5-(trifluoromethyl)pyrimidin-4-yl)amino)-5-methylphenyl)acrylamide]
IC50 (MEK1 activated ERK1; ATP at KM, WT): 501 to 999 nM
EC50 [1]: > 1000 nM
ERK1 Mass Mod (%) (Erk1): F (a mass modification of 31-69%)

C=CC(=O)Nc1cc(C)ccc1Nc1nc(Nc2cc(OC)ncc2Cl)ncc1C(F)(F)F [Compound I-351, N-(2-((2-((5-chloro-2-methoxypyridin-4-yl)amino)-5-(trifluoromethyl)pyrimidin-4-yl)amino)-5-methylphenyl)acrylamide]
IC50 (MEK1 activated ERK1; ATP at KM, WT): 101 to 500 nM
EC50 [1]: 101 to 500 nM
ERK1 Mass Mod (%) (Erk1): F (a mass modification of 31-69%)

C=CC(=O)Nc1cc(C)ccc1Nc1nc(Nc2ncc(C(F)(F)F)c(OC)n2)ncc1C(F)(F)F [Compound I-354, N-(2-((2-((4-methoxy-5-(trifluoromethyl)pyrimidin-2-yl)amino)-5-(trifluoromethyl)pyrimidin-4-yl)amino)-5-methylphenyl)acrylamide]
IC50 (MEK1 activated ERK1; ATP at KM, WT): 101 to 500 nM
EC50 [1]: 101 to 500 nM
ERK1 Mass Mod (%) (Erk1): E (a mass modification of ≧70%)

C=CC(=O)Nc1cc(C)ccc1Nc1nc(Nc2nc(OC)ncc2C(F)(F)F)ncc1C(F)(F)F [Compound I-355, N-(2-((2-((2-methoxy-5-(trifluoromethyl)pyrimidin-4-yl)amino)-5-(trifluoromethyl)pyrimidin-4-yl)amino)-5-methylphenyl)acrylamide]
IC50 (MEK1 activated ERK1; ATP at KM, WT): 101 to 500 nM
EC50 [1]: 101 to 500 nM
ERK1 Mass Mod (%) (Erk1): E (a mass modification of ≧70%)

C=CC(=O)Nc1cc(C)ccc1Nc1nc(Nc2nc(OC)ccc2Cl)ncc1C(F)(F)F [Compound I-360, N-(2-((2-((3-chloro-6-methoxypyridin-2-yl)amino)-5-(trifluoromethyl)pyrimidin-4-yl)amino)-5-methylphenyl)acrylamide]
EC50 [1]: 101 to 500 nM
ERK1 Mass Mod (%) (Erk1): E (a mass modification of ≧70%)

C=CC(=O)Nc1cc(C)ccc1Nc1nc(Nc2cc(OC)cnc2Cl)ncc1C(F)(F)F [Compound I-361, N-(2-((2-((2-chloro-5-methoxypyridin-3-yl)amino)-5-(trifluoromethyl)pyrimidin-4-yl)amino)-5-methylphenyl)acrylamide]
EC50 [1]: 101 to 500 nM
ERK1 Mass Mod (%) (Erk1): E (a mass modification of ≧70%)

C=CC(=O)Nc1cc(C)ccc1Nc1nc(Nc2nc(O)ncc2C)ncc1C(F)(F)F [Compound I-364, N-(2-((2-((2-hydroxy-5-methylpyrimidin-4-yl)amino)-5-(trifluoromethyl)pyrimidin-4-yl)amino)-5-methylphenyl)acrylamide]
EC50 [1]: < 100 nM
ERK1 Mass Mod (%) (Erk1): E (a mass modification of ≧70%)
